BindingDB's records for doi:10.1124/jpet.102.040394 (Merck Sharp and Dohme Research Laboratories, 2002)

Legend:
[1] = target: Transient receptor potential cation channel subfamily V member 1 (Homo sapiens, UniProt Q8NER1)
[2] = target: Transient receptor potential cation channel subfamily V member 1 (Rattus norvegicus, UniProt O35433)
Sequence of Transient receptor potential cation channel subfamily V member 1 (Rattus norvegicus, UniProt O35433) (O35433 whole entry): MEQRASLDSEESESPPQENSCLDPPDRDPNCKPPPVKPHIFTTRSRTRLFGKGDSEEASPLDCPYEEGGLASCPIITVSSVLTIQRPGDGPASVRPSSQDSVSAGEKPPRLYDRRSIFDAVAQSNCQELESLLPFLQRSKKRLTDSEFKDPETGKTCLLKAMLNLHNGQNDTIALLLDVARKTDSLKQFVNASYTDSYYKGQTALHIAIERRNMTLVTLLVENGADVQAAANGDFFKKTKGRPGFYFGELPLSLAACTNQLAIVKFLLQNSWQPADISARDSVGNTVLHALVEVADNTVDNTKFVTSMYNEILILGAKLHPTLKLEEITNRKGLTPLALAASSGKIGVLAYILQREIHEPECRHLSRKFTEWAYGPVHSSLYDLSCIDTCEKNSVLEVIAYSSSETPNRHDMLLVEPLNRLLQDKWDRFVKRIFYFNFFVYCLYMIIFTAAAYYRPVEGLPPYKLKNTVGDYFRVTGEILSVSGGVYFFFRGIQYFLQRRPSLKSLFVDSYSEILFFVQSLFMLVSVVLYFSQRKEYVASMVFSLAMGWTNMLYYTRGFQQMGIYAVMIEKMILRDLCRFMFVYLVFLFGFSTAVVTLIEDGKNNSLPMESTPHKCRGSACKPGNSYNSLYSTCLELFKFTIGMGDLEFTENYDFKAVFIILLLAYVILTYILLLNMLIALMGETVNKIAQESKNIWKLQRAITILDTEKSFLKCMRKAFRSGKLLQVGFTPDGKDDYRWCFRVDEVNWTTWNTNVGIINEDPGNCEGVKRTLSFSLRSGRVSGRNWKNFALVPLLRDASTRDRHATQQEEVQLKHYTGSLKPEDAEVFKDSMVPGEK

Sequence of Transient receptor potential cation channel subfamily V member 1 (Homo sapiens, UniProt Q8NER1) (Q8NER1 whole entry): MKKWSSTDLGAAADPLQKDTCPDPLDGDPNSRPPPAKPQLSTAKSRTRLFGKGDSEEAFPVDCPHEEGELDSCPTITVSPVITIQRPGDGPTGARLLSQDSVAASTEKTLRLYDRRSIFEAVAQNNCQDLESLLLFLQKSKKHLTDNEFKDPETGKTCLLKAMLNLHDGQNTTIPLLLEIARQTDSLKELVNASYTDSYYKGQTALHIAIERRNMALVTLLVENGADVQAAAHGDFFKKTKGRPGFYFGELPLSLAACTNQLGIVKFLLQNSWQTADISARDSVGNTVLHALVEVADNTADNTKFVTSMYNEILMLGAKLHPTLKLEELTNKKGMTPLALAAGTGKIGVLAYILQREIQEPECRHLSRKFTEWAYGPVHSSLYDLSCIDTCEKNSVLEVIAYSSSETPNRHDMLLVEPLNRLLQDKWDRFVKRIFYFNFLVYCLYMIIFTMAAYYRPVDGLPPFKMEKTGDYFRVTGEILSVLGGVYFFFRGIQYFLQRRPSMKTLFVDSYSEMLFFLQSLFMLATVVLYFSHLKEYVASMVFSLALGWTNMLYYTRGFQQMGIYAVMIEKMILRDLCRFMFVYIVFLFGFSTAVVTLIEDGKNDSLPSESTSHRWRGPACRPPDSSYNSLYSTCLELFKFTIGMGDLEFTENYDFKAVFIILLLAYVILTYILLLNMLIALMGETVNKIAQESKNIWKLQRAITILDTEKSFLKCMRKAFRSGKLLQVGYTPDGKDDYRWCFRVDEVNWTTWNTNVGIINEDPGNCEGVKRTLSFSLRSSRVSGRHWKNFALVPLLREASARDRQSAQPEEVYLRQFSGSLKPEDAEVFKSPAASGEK

Row | Structure (SMILES) | Ki [1] [nM] | Ki [2] [nM]
1 | C=C(C)[C@]12C[C@@H](C)[C@@]34O[C@](Cc5ccccc5)(O[C@@H]1[C@@H]3C(COC(=O)Cc1cc(I)c(O)c(OC)c1)=CC[C@@H]1C(=O)C(C)=C[C@H]14)O2 [5'-IODORESINIFERATOXIN] | 6.7 | 0.39
2 | Oc1cc2c(cc1O)CN(C(=S)NCCc1ccc(Cl)cc1)CCC2 [N-[2-(4-chlorophenyl)ethyl]-7,8-dihydroxy-2,3,4,5-tetrahydro-1H-2-benzazepine-2-carbothioamide] |  | 4300
